# What was measured:
# [1] = tested on: LARG-RhoA interaction; experiment: LARG-RhoA interaction by co-immunoprecipitation and Western blot in Ang II-stimulated SHR VSMCs; type: cell-based, rat
# Text: (§1) The culture procedure of the primary cultured vascular smooth muscle cells (VSMCs) used in this example or the following examples is as follows. SHRs were anesthetized with Zoletil 50, and the thoracic aortas were immediately excised. The samples were then carefully cleaned of connective tissue and adherent fat. Each isolated aorta was cut open longitudinally, followed by endothelial removal by gently grazing the intimal surface. The denuded aortas were cut into approximately 2 mm^2 sections and then placed with the intimal side down. The M199 medium supplemented with 20% fetal bovine serum and antibiotics (100 U/ml penicillin and 100 μg/ml streptomycin) were then gently added to cover the tissues without disturbing the orientation of the explants. VSMCs were allowed to grow out from the explants for 7-10 days culture, and the tissues were removed.
# The treatment method of the small molecule compounds used in this example or the following examples is as follows. Small molecule compounds were dissolved in pure water to test their effects on the VSMCs. […]
# The procedure of cell harvest and protein extraction used in this example or the following examples is as follows. […] The protein concentrations were determined using a BSA Protein Assay kit. […]
# [2] = tested on: myosin phosphatase target subunit 1 (MYPT1) phosphorylation; experiment: MYPT1 phosphorylation by Western blot in Ang II-stimulated SHR VSMCs; type: cell-based, rat
# Text: as §1
# The treatment method of the small molecule compounds used in this example or the following examples is as follows. Small molecule compounds were dissolved in pure water to test their effects on the VSMCs. Different concentrations of Y16 or the combination of Y16+Rhosin were administered for 24 hours, followed by stimulation with 10^−7M angiotensin II (Ang II) for 10 min. The Y16 concentrations used were as follows: 1 μM, 2.5 μM, 5 μM, 10 μM, 30 μM, 50 μM.
# The procedure of cell harvest and protein extraction used in this example or the following examples is as follows. Culture dishes were placed on ice and washed twice with ice-cold phosphate-buffered saline (PBS). All subsequent procedures were performed over ice. […] The protein concentrations were determined using a BSA Protein Assay kit.
# The procedure of Western blot analysis used in this example or the following examples is as follows. […] Signals were visualized using a UVP Imaging System (UVP) or with X-ray film, and the results were expressed as the densitometric ratio of target protein/GAPDH or phosphor-MYPT1/total-MYPT1. […]
# [3] = tested on: SHR primary VSMCs; experiment: MTT assay for cell viability of SHR primary VSMCs; type: cell-based, rat; details: 1, 2.5, 5, 10, 30, or 50 μmol/L Y16, 24 hours
# Procedure: The procedure of 3-(4,5-dimethylthiazol-2-yl)-2,5-diphenyltetrazolium bromide (MTT) assay for cell viability used in this example is as follows. The cytotoxicity results for Y16 or Rhosin were determined using an MTT-based in vitro assay. Briefly, the media from the cell cultures was discarded and carefully aspirated. Next, 50 μL of serum-free media and 50 μL of MTT solution were added into each well. The plate was then incubated at 37° C. for 3 hours. After incubation, 150 μL of MTT solvent (4 mM HCl, 0.1% NP40 in isopropanol) was added into each well. The plate was then wrapped in foil and shaken on an orbital shaker for 15 minutes, and the absorbance was read at OD=590 nm.
# [4] = tested on: spontaneously hypertensive rats (SHRs); experiment: Physiological signals recording (BP, HR) in anesthetized SHRs after intravenous injection; type: in vivo, rat; details: for decrease of BP: versus 0 min
# Text: According to the present invention, the statistical analysis used in the following examples is described as follows. For the physiological signals recording, the data from different time intervals of each rat was compared with that from before Y16 and Rhosin administration. Considering the differences of physiological conditions among individuals, the BP and HR are not calculated by the absolute value measured, but by the percentage of the BP or HR measured at each time point relative to those measured before administration (0 minutes). All data were representative of at least four independent experiments.
# (§2) The animal model used in this example or the following examples is illustrated as follows. The Institutional Animal Care and Use Committee of the Fu Jen Catholic University, New Taipei, Taiwan (Approval No A10660), approved all of the animal procedures and experimental protocols. Male 16-week-old SHRs (body weight range: 350-370 g) were purchased from the National Laboratory Animal Center, Taipei, Taiwan. The animals were housed at a temperature of 21° C. under a 12 h light/dark cycle and fed a regular pellet diet. The animals were divided into three main groups—the Y16 group, the Rhosin group, and the Y16+Rhosin group. Each group was further divided into several subgroups according to the administered Y16 and Rhosin dose. Their concentrations are listed below: Y16 group: 0.2 mg/kg, 1 mg/kg, 5 mg/kg, 10 mg/kg, 20 mg/kg; Rhosin group: 5 mg/kg, 10 mg/kg, 20 mg/kg; Y16+Rhosin group: (Y16, 3 mg+Rhosin, 7 mg)/kg, (Y16, 5 mg+Rhosin, 10 mg)/kg.
# (§3) The procedure of physiological signals recording and blood tests used in this example or the following examples is as follows. The rats were anesthetized with Zoletil 50 (30 mg/kg, intraperitoneal injection) and then attached to a physiological signal recording device. The Y16 and Rhosin were administered to them by intravenous injection. Their electrocardiography (ECG), heart rate (HR), and blood pressure (BP) measurements were taken for 90 minutes. After observing and recording the physiological signals, blood was drawn from the rats in an appropriate test tube and stored for subsequent tests for complete blood cell count, liver function and renal function. The rats were then sacrificed. Their heart, lungs, liver, and kidneys were removed and stored in paraformaldehyde for further histological examinations.
# [5] = tested on: spontaneously hypertensive rats (SHRs); experiment: Blood tests (complete blood cell count, liver function) in SHRs after dosing; type: in vivo, rat; details: for platelets count (PLC) or white blood cell counts (WBC): significant versus control
# Procedure: as §2, §3
# The animal model and experimental procedure of this example are the same as those described in Example 6. To observe whether the use of Y16 or Rhosin might have adverse effects or even harm to the animals, the blood of rats was drawn for the blood test after collecting the required physiological signals.
# [6] = tested on: spontaneously hypertensive rats (SHRs); experiment: Histological examination (HE) of heart, liver, lung and kidney of SHRs; type: in vivo, rat; details: doses used in the experiments
# Procedure: as §3
# The procedure of histological examination used in this example is as follows. The tissues were fixed in 4% paraformaldehyde overnight and then embedded in paraffin for histological examination. The transverse sections (4 μm) were incubated at 75˜85° C. for 10 minutes, followed by stained with hematoxylin/eosin (HE), and examined under a light microscope. Severity of lesions was graded according to the methods described by Shackelford et al. (2002). […]
compound,measurement,setting,value
"Cc1cccc(COc2cccc(/C=C3\C(=O)NN(c4ccccc4)C3=O)c2)c1 [Y16, (E)-4-(3-(3-methylbenzyloxy)benzylidene)-1-phenylpyrazolidine-3,5-dione]","LARG-RhoA interaction, relative amount of RhoA normalized to GAPDH","[1]; 50 μM Y16, 24 h, then 10^−7M Ang II 10 min, control 0.939±0.121, p<0.001",0.469±0.074
same,inhibition of LARG-RhoA complex formation induced by Ang II,"[1]; Y16 1-50 μM, 24 h",dose-dependently inhibited
same,phospho-MYPT1 normalized to total-MYPT1,"[2]; 5 μM Y16, 24 h, then 10^−7M Ang II 10 min, control 0.994±0.048, P=0.041",0.642±0.199
same,inhibition of MYPT1 phosphorylation,"[2]; Y16 1-50 μM, 24 h",dose-dependent inhibition
same,working concentrations required for the effective inhibition of MYPT1 phosphorylation,[2]; lowest concentration with statistically significant difference,5 µM
same,effect on the growth (cell viability) of SHR VSMCs,[3],no conspicuous effect on the growth
same,effect on BP,[4]; 0.2 mg/kg iv,no effects on BP
same,effect on BP,[4]; 1 mg/kg iv,no effects on BP
same,duration of BP decrease,[4]; 5 mg/kg iv,30 min
same,decrease of BP,[4]; 5 mg/kg iv,21%
same,BP as percentage of BP before administration (0 min),"[4]; 5 mg/kg iv, p=0.0081",79%±13%
same,duration of BP decrease,[4]; 10 mg/kg iv,over 60 minutes
same,decrease of BP,[4]; 10 mg/kg iv,21%
same,BP as percentage of BP before administration (0 min),"[4]; 10 mg/kg iv, p=0.0007",79%±12%
same,duration of BP decrease,[4]; 20 mg/kg iv,over 60 minutes
same,BP as percentage of BP before administration (0 min),"[4]; 20 mg/kg iv, 20 minutes, p=0.0187",58%±8%
same,reduction of HR,"[4]; 20 mg/kg iv, for 30 minutes, not statistically significant",16%
same,maximum blood pressure reduction effect,"[4]; 20 mg/kg iv, in 20 minutes",42%
same,HR as percentage of HR before administration (0 min),"[4]; 20 mg/kg iv, p=0.1067",84%±8%
same,platelets count (PLC) or white blood cell counts (WBC),[5]; 0.2 mg/kg iv,slightly high
same,platelets count (PLC) or white blood cell counts (WBC),[5]; 1 mg/kg iv,slightly high
same,abnormalities regarding complete blood cell count and liver function,"[5]; doses used in the experiments, iv",did not cause any overt abnormalities
same,"injuries by histological analyses of heart, liver, lungs, and kidneys",[6],did not cause any overt injuries
